This passage reports IC50 and Max decrease results from ChEMBL document CHEMBL1126335, “Aryl cyanoguanidine potassium channel openers” (Bioorg Med Chem Lett, 1992).

Common to all, as to assay type: functional
The species entered for test [1] is Rattus norvegicus. Put plainly: Vasorelaxant potency required to relax methoxamine contracted male Wistar Kyoto rat thoracic aorta.
Test [2] relates to Rattus norvegicus. Nature of the test: Antihypertensive activity expressed as percent maximum decrease in blood pressure at 45 umol/Kg for 0-6 hrs in spontaneously hypertensive male rats when administered perorally.
Test [3] relates to Rattus norvegicus. Put plainly: Antihypertensive activity expressed as percent maximum decrease in blood pressure at 45 umol/kg for 12-18 hrs in spontaneously hypertensive male rats when administered perorally.
In test [4] the test system is Rattus norvegicus. Nature of the test: Antihypertensive activity expressed as percent maximum decrease in blood pressure at 45 umol/kg for 18-24 hrs in spontaneously hypertensive male rats when administered perorally.
The subject of test [5] is Rattus norvegicus. Put plainly: Antihypertensive activity expressed as percent maximum decrease in blood pressure at 45 umol/kg for 6-12 hrs in spontaneously hypertensive male rats when administered perorally.

Where “and” joins values, the source holds several entries; their conditions need not be identical. Identical values can stand only once.

As for `CC(C)/N=C(\NC#N)Nc1ccc(C#N)cc1`, in the test listed under Rattus norvegicus [1], the IC50 (as a rule, the concentration that inhibits the measured activity by half) was found to be 19000 nM. For `CC(/N=C(\NC#N)Nc1cccc(C#N)c1)C(C)(C)C` (centres undefined), the IC50 in the test filed under Rattus norvegicus [1] stood at 420 nM. This IC50 lies about 45-fold lower than the previous one.

As to `CC(C)(C)/N=C(\NC#N)Nc1ccc(C#N)cc1`, the IC50 in the test filed under Rattus norvegicus [1] amounted to 430 nM. For `C/N=C(\NC#N)Nc1ccc(C#N)cc1`, inhibition in the test listed under Rattus norvegicus [1] was half-maximal at 123000 nM (IC50).

In the test filed under Rattus norvegicus [1], `CC(/N=C(\NC#N)Nc1cccc([N+](=O)[O-])c1)C(C)(C)C` (centres undefined) returned an IC50 of 170 nM. In the test filed under Rattus norvegicus [1], `CC(N/C(=N\C#N)Nc1ccncc1)C(C)(C)C` (centres undefined) [PINACIDIL ANHYDROUS] registered an IC50 of 70 nM. The Max decrease with Rattus norvegicus [2] was 40%; in the test on Rattus norvegicus [3], 21% and 23%; with Rattus norvegicus [4], 14%. Regarding `CC1(C)Oc2ccc(C#N)cc2[C@@H](N2CCCC2=O)[C@@H]1O` [CROMAKALIM], in the test filed under Rattus norvegicus [1], the IC50 amounted to 55 nM. For the same compound, the Max decrease with Rattus norvegicus [2] amounted to 63%; with Rattus norvegicus [3] it was 37%; in the test on Rattus norvegicus [4] it was 42%; in the test with Rattus norvegicus [5], 35%. With `CC(/N=C(\NC#N)Nc1ccccc1)C(C)(C)C` (centres undefined), the 50% inhibitory concentration (IC50) in the test filed under Rattus norvegicus [1] came out at 880 nM.

Regarding `CCC(C)(C)/N=C(\NC#N)NCc1ccc(C#N)cc1`, inhibition in the test listed under Rattus norvegicus [1] was half-maximal at 1500 nM (IC50).

In the test listed under Rattus norvegicus [1], `CCC(C)(C)/N=C(\NC#N)Nc1ccc(C#N)cc1` displayed an IC50 of 120 nM. Regarding `CC(/N=C(\NC#N)Nc1ccc(C#N)cc1)C(C)(C)C` (centres undefined), the IC50 in the test listed under Rattus norvegicus [1] came to 22 nM. In addition, the Max decrease in the test with Rattus norvegicus [2] is reported as 33%; in the test on Rattus norvegicus [3], 26%; in the test with Rattus norvegicus [4], 25%; in the test with Rattus norvegicus [5] it was 26%. For the compound `CC(/N=C(\NC#N)Nc1ccc([N+](=O)[O-])cc1)C(C)(C)C` (centres undefined), half-maximal inhibition in the test filed under Rattus norvegicus [1] (IC50) required 5150 nM. `CC(/N=C(\NC#N)Nc1ccccc1[N+](=O)[O-])C(C)(C)C` (centres undefined): half-maximal inhibition in the test filed under Rattus norvegicus [1] (IC50) required 240 nM.
